{"source": "ChEMBL document CHEMBL2429810", "about": "“Heteroannelated and 7-deoxygenated goniofufurone mimics with antitumour activity: design, synthesis and preliminary SAR studies” (Bioorg Med Chem Lett, 2013)", "key": {"MRC5": {"test_system": "MRC5", "assay": "Antiproliferative activity against human MRC5 cells after 72 hrs by MTT assay", "type": "cell-based", "details": "MRC5, 72 h"}, "HL-60": {"test_system": "HL-60", "assay": "Antiproliferative activity against human HL60 cells after 72 hrs by MTT assay", "type": "functional, cell-based", "details": "HL-60, 72 h"}, "HeLa": {"test_system": "HeLa", "assay": "Antiproliferative activity against human HeLa cells after 72 hrs by MTT assay", "type": "functional, cell-based"}, "Raji [1]": {"test_system": "Raji", "assay": "Antiproliferative activity against human Raji cells after 72 hrs by MTT assay", "type": "functional, cell-based"}, "Jurkat": {"test_system": "Jurkat", "assay": "Antiproliferative activity against human Jurkat cells after 72 hrs by MTT assay", "type": "functional, cell-based"}, "Raji [2]": {"test_system": "Raji", "assay": "Ratio of doxorubicin IC50 to compound IC50 for human Raji cells", "type": "functional"}, "K562": {"test_system": "K562", "assay": "Antiproliferative activity against human K562 cells after 72 hrs by MTT assay", "type": "functional, cell-based", "details": "K562, 72 h"}}, "data": [{"smiles": "O=C1C[C@H]2O[C@H](Cc3ccccc3)[C@H](O)[C@H]2O1", "values": [{"measurement": "IC50", "setting": "MRC5", "value": "> 100", "unit": "µM"}]}, {"smiles": "O=C1C[C@H]2O[C@H]([C@H](O)c3ccccc3)[C@H](O)[C@H]2O1", "values": [{"measurement": "IC50", "setting": "HL-60", "value": "> 100", "unit": "µM"}, {"measurement": "IC50", "setting": "MRC5", "value": "> 100", "unit": "µM"}]}, {"smiles": "O=C1C[C@@H]2O[C@@H](Cc3ccccc3)[C@@H](O)[C@@H]2O1", "values": [{"measurement": "IC50", "setting": "HL-60", "value": 0.17, "unit": "µM"}, {"measurement": "IC50", "setting": "HeLa", "value": 1.21, "unit": "µM"}, {"measurement": "IC50", "setting": "Raji [1]", "value": 0.03, "unit": "µM"}, {"measurement": "IC50", "setting": "Jurkat", "value": 0.12, "unit": "µM"}, {"measurement": "Ratio IC50", "setting": "Raji [2]", "value": 100}, {"measurement": "IC50", "setting": "MRC5", "value": "> 100", "unit": "µM"}, {"measurement": "IC50", "setting": "K562", "value": 0.02, "unit": "µM"}]}, {"smiles": "O=C1C[C@H]2O[C@H](Cc3ccccc3)[C@H](OCc3ccccc3)[C@H]2O1", "values": [{"measurement": "IC50", "setting": "HL-60", "value": 0.56, "unit": "µM"}, {"measurement": "IC50", "setting": "HeLa", "value": 4.32, "unit": "µM"}, {"measurement": "IC50", "setting": "Raji [1]", "value": 9.48, "unit": "µM"}, {"measurement": "IC50", "setting": "Jurkat", "value": 1.01, "unit": "µM"}, {"measurement": "IC50", "setting": "MRC5", "value": "> 100", "unit": "µM"}, {"measurement": "IC50", "setting": "K562", "value": 0.14, "unit": "µM"}]}, {"smiles": "Cc1ccccc1[C@H](c1ccccc1)[C@H]1O[C@@H]2CC(=O)O[C@@H]2[C@H]1O", "values": [{"measurement": "IC50", "setting": "HL-60", "value": 11.7, "unit": "µM"}, {"measurement": "IC50", "setting": "HeLa", "value": 11.4, "unit": "µM"}, {"measurement": "IC50", "setting": "Raji [1]", "value": 5.67, "unit": "µM"}, {"measurement": "IC50", "setting": "Jurkat", "value": 21.4, "unit": "µM"}, {"measurement": "IC50", "setting": "MRC5", "value": "> 100", "unit": "µM"}, {"measurement": "IC50", "setting": "K562", "value": 1.56, "unit": "µM"}]}, {"smiles": "O=C1C[C@H]2O[C@@H]3[C@@H](c4ccccc4)c4ccccc4CO[C@@H]3[C@H]2O1", "values": [{"measurement": "IC50", "setting": "HL-60", "value": 0.78, "unit": "µM"}, {"measurement": "IC50", "setting": "HeLa", "value": "> 100", "unit": "µM"}, {"measurement": "IC50", "setting": "Raji [1]", "value": 0.46, "unit": "µM"}, {"measurement": "IC50", "setting": "Jurkat", "value": 0.074, "unit": "µM"}, {"measurement": "IC50", "setting": "MRC5", "value": "> 100", "unit": "µM"}, {"measurement": "IC50", "setting": "K562", "value": 1.43, "unit": "µM"}]}, {"smiles": "O=C1C[C@@H]2O[C@H]3[C@H](c4ccccc4)c4ccccc4CO[C@H]3[C@@H]2O1", "values": [{"measurement": "IC50", "setting": "HL-60", "value": 11.7, "unit": "µM"}, {"measurement": "IC50", "setting": "HeLa", "value": 6.56, "unit": "µM"}, {"measurement": "IC50", "setting": "Raji [1]", "value": 15.9, "unit": "µM"}, {"measurement": "IC50", "setting": "Jurkat", "value": 18.4, "unit": "µM"}, {"measurement": "IC50", "setting": "MRC5", "value": "> 100", "unit": "µM"}, {"measurement": "IC50", "setting": "K562", "value": 1.21, "unit": "µM"}]}]}
